Reference: patent US5565566A (Discovery Therapeutics, Inc., priority 1995, dated 1996)
pKi: −log10 of the molar value. Where a name gives a salt, the structure may show the parent alone. Read-outs that look alike come from different tables or passages of the source.

Assays:
[1] = biological target: T1, A2 receptors (Homo sapiens, UniProt P29274); assay: antagonism of NECA-stimulated adenylate cyclase in human platelet membranes (A); format: biochemical
T1 construct: Human Platelet Membranes; from tissue; host or cells: human platelets (membranes)
T1 sequence (P29274 whole entry): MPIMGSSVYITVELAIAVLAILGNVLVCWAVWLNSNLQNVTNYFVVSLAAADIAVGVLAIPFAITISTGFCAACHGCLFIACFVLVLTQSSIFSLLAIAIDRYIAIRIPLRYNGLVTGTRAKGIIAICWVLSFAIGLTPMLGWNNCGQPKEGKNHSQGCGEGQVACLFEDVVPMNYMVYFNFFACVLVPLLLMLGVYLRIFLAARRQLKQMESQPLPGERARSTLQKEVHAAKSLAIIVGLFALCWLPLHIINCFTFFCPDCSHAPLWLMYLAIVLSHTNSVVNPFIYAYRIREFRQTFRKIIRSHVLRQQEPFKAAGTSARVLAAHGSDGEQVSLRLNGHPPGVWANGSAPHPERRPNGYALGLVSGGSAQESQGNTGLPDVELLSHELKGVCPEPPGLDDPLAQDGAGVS

[2] = biological target: T2, A2 receptors (Rattus norvegicus, UniProt P30543); assay: antagonism of NECA-stimulated adenylate cyclase in rat PC12 membranes (B); format: biochemical
T2 construct: Rat PC12 Membranes; endogenous in cells; host or cells: PC12
T2 sequence (P30543 whole entry): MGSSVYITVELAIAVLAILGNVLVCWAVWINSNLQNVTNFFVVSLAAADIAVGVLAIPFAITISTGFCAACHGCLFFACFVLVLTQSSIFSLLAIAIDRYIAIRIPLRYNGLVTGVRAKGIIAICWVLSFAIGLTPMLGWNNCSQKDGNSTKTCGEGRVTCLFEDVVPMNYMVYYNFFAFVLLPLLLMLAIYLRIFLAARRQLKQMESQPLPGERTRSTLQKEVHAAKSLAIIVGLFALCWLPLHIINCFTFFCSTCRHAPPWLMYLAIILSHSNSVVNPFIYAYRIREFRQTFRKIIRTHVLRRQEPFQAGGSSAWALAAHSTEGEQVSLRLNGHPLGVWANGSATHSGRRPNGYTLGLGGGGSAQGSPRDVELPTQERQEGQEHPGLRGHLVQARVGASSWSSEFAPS

[3] = biological target: T3, A1 receptors (Rattus norvegicus, UniProt P25099); assay: inhibition of binding of [3H]-phenylisopropyladenosine in rat brain membranes (D); parameters: Rat Brain Membranes; from tissue; host or cells: rat brain (membranes)
T3 sequence (P25099 1-326): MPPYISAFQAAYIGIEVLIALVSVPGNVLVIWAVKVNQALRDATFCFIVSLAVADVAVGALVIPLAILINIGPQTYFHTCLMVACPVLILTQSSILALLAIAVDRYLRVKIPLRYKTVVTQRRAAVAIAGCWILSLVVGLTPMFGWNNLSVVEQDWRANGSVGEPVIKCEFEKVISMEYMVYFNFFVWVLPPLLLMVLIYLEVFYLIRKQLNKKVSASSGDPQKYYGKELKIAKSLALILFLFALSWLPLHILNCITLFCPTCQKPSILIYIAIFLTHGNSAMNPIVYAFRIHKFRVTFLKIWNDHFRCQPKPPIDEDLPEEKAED
Method: (§1) For activity at A1 receptors, compounds were tested as inhibitors of the binding of N^6 -[…]-[3H]-Phenylisopropyladenosine in rat brain membranes and for their ability to prevent R-PIA-induced inhibition of adenylate cyclase in rat fat cell membranes.
(D) Rat Brain Membranes

[4] = biological target: T3, A1 receptors; assay: prevention of R-PIA-induced inhibition of adenylate cyclase in rat fat cell membranes (C); format: biochemical; parameters: from tissue
Method: as §1
(C) Rat Fat Cell Membranes

[5] = biological target: T4, rat cortical A1 receptors (Rattus norvegicus, UniProt P25099); assay: displacement of [3H]-CHA from rat cortical A1 receptors; format: binding
T4 construct: rat cortical membranes were the receptor source; from tissue; host or cells: rat cerebral cortex (male Sprague Dawley) membranes
T4 sequence (P25099 1-326): T3 sequence (P25099 1-326)
Method: Varying concentrations of test compounds were incubated with the appropriate radioligand and membrane source for 1 hr at room temperature.
Assays were terminated by filtration over Whatman GF/B filters that had been pre-soaked with 0.1% polyethyleneimine using a 24 port Brandell cell havester. The filters were washed three times with 3 ml of ice cold buffer and transfered to plastic scintillation vials to which 4 ml of Beckman Ready protein scintillation cocktail was added. The tubes were shaken and counted in a Beckman 3801 scintillation counter that converted cpm to dpm.
Data were analyzed by utilizing the Ligand, commercial computer program (Munson and Rodbard, 1980).
Male Sprague Dawley rats were killed by decapitation and the brains removed. The cerebral cortices were homogenized in 50 mm Tris; 2mm MgCl2 (pH 7.4), and centrifuged at 40,000×g for 10 minutes. […] The homogenate was centrifuged, washed once, resuspended to a protein concentration of 5-10 mg/ml and frozen at -70° C. until use.

[6] = (A) Human Platelet Membranes, A2 Effects
[7] = (B) Rat PC12 Membranes, A2 Effects
[8] = (D) Rat Brain Membranes, A1 Effects, read-out: Ki vs [^3 H] PI (Binding)
[9] = (C) Rat Fat Cell Membranes, A1 Effects, read-out: KB vs PIA INHIBITION (Adenylate Cyclase)
[10] = [3H]-CHA, rat cortical A1 receptors, read-out: Rat Cortical Binding Constant Ki

Molecule: Cn1cnc2c(NCc3ccccc3)ncnc21 [N^6-2-Benzyl-9-MA, N^6 -Benzyl-9-MA]
- Kb [1, 6]: 57 µM
- Kb [2, 7]: 100 µM
- pKi [3, 8]: 4.77
- Kb [4, 9]: 49 µM

Molecule: N^6 -Methylcyclopentyl-9-MA [N^6 -Methylcylopentyl-9-MA]
- Kb ([1]; read-out: KB vs NECA Stimulation (Adenylate Cyclase), (A) Human Platelet Membranes, A2 Effects): 45 µM
- Kb ([2]; read-out: KB vs NECA Stimulation (Adenylate Cyclase), (B) Rat PC12 Membranes, A2 Effects): 56 µM
- pKi [3, 8]: 5.60
- Kb [4, 9]: 9 µM

Molecule: Cn1c(=O)[nH]c2c(N[C@H]3C[C@H]4CC[C@@H]3C4)ncnc21 (relative stereo) [compound 1001, N^6-(endo-2-norbornyl)-8-oxo-9-MA]
- pKi [5, 10]: ~5.00

Molecule: Cn1cnc2c(Nc3ccccc3)ncnc21 [N^6 Phenyl-9-MA, N^6 -Phenyl-9-MA]
- Kb [1, 6]: 21 µM
- Kb [2, 7]: 107 µM
- pKi [3, 8]: 4.60
- Kb [4, 9]: 10 µM

Molecule: Cn1cnc2c(N[C@@H]3C[C@H]4CC[C@@H]3C4)ncnc21 (relative stereo) [compound 0978, N^6-(exo-2-norbornyl)-9-MA]
- pKi [5, 10]: 6.37

Molecule: Cn1cnc2c(Nc3ccccc3F)ncnc21 [N^6-2-Fluorophenyl-9-MA, N^6-2-Fluorophenyl-9-MA]
- Kb [1, 6]: 11 µM
- Kb [2, 7]: 29 µM
- pKi [3, 8]: 5.07
- Kb [4, 9]: 17 µM

Molecule: Cn1cnc2c(NCC(c3ccccc3)c3ccccc3)ncnc21 [compound 0966, N^6-2,2-diphenylethyl-9-MA]
- pKi [5, 10]: < 5.00

Molecule: Cn1cnc2c(Nc3cccs3)ncnc21 [compound 0987, N6 2-thienyl-9-MA]
- pKi [5, 10]: < 4.00

Molecule: COc1cc(CCNc2ncnc3c2ncn3C)cc(OC)c1OC [compound 1002, N^6-2-(3,4,5-Trimethoxyphenyl) ethyl-9-MA]
- pKi [5, 10]: < 5.00
- Kb [1, 6]: 23 µM
- Kb [2, 7]: 40 µM
- pKi [3, 8]: < 4.00
- Kb [4, 9]: 122 µM

Molecule: Cn1c(S(=O)(=O)O)nc2c(N[C@H]3C[C@H]4CC[C@@H]3C4)ncnc21 (relative stereo) [compound 1062, N^6-(endo-2-norbornyl)-8-sulfonate-9-MA sodium salt]
- pKi [5, 10]: < 4.00

Molecule: Cn1cnc2c(N[C@H]3C[C@H]4CC[C@@H]3C4)nc(Cl)nc21 (relative stereo) [compound 0913, N^6-(endo-2-norbornyl)-2-chloro-9-MA]
- pKi [5, 10]: 6.98

Molecule: Cn1c(C(=O)O)nc2c(N[C@H]3C[C@H]4CC[C@@H]3C4)ncnc21 (relative stereo) [compound 1006, N^6-(endo-2-norbornyl)-8-carboxy-9-MA Sodium Salt]
- pKi [5, 10]: < 5.00

Molecule: Cn1c(Br)nc2c(N[C@H]3C[C@H]4CC[C@@H]3C4)ncnc21 (relative stereo) [compound 1003, N^6-(endo-2-norbornyl)-8-bromo-9-MA]
- pKi [5, 10]: 7.89

Molecule: Cn1c(C2CCCC2)nc2c(NC3CCCC3)ncnc21 [compound 0965, N^6-cyclopentyl-8-cyclopentyl-9-MA]
- pKi [5, 10]: 6.85

Molecule: Cn1c(S)nc2c(N[C@H]3C[C@H]4CC[C@@H]3C4)ncnc21 (relative stereo) [compound 1060, N^6-(endo-2-norbornyl)-8-thio-9-MA]
- pKi [5, 10]: 6.43

Molecule: Cn1cnc2c(N)ncnc21 [9-Methyladenine (9-MA), 9-Methyladenine, reference compound]
- Kb [2]: 24 µM
- pKi [3]: 3.97
- Kb [4]: 112 µM

Molecule: C[C@H](Cc1ccccc1)Nc1ncnc2c1ncn2C [N^6 R-1-Phenyl-2-propyl-9-MA, N^6 -R-1-Phenyl-2-propyl-9-MA]
- Kb [1, 6]: 13 µM
- Kb [2, 7]: 25 µM
- pKi [3]: 5.60
- Kb [4]: 7.2 µM

Molecule: Cn1c(Cl)nc2c(N[C@H]3C[C@H]4CC[C@@H]3C4)ncnc21 (relative stereo) [compound 1061, N^6-(endo-2-norbornyl)-8-chloro-9-MA]
- pKi [5, 10]: 7.82

Molecule: Cn1cnc2c(NCCN)ncnc21 [compound 0982, N^6-2-Aminoethyl-9-MA]
- pKi [5, 10]: < 5.00

Molecule: Cc1cc(Cl)ccc1Nc1ncnc2c1ncn2C [compound 0988, N6(4-chloro-2-methylphenyl)-9-MA]
- pKi [5, 10]: < 5.00

Molecule: Cn1c(NC2CCCC2)nc2c(N[C@H]3C[C@H]4CC[C@@H]3C4)ncnc21 (relative stereo) [compound 1064, N^6-(endo-2-norbornyl)-8-cyclopentylamine-9-MA]
- pKi [5, 10]: 5.72

Molecule: Cn1cnc2c(N[C@H]3C[C@H]4CC[C@@H]3C4)nc(O)nc21 (relative stereo) [compound 1063, N^6-(Endo-2-norbornyl)-2-oxo-9-MA]
- pKi [5, 10]: 5.95

Molecule: Cn1c(C2CCCC2)nc2c(N[C@H]3C[C@H]4CC[C@@H]3C4)ncnc21 (relative stereo) [compound 0964, N^6-(endo-2-norbornyl)-8-cyclopentyl-9-MA]
- pKi [5, 10]: 6.62

Molecule: Cn1c(N)nc2c(N[C@H]3C[C@H]4CC[C@@H]3C4)ncnc21 (relative stereo) [compound 1005, N^6-(endo-2-norbornyl)-8-amino-9-MA]
- pKi [5, 10]: 6.06

Molecule: CCCC(Nc1ncnc2c1ncn2C)C(=O)O (centres unmarked) [compound 1004, N^6-1-carboxy-1-butyl-9-MA]
- pKi [5, 10]: < 4.00

Molecule: Cn1cnc2c(NCCc3cccnc3)ncnc21 [N^6-2-(3-Pyridylethyl)-9-MA]
- Kb [1, 6]: 92 µM
- Kb [2, 7]: 117 µM
- pKi [3, 8]: 4.39
- Kb [4, 9]: 96 µM

Molecule: CN(C)CCNc1ncnc2c1ncn2C [compound 0983, N^6-(2,2-N-dimethylethyl)-9-MA]
- pKi [5, 10]: < 5.00

Molecule: CNc1ncnc2c1ncn2C [N^6 -Methyl-9-MA]
- Kb [1]: 150 µM
- Kb [2]: 130 µM
- pKi [3]: < 4.00
- Kb [4]: 220 µM

Molecule: C[C@@H](Nc1ncnc2c1ncn2C)c1ccccc1 [compound 0984, N^6 -R-1-phenyl-1-ethyl-9-MA]
- pKi [5, 10]: < 5.00

Molecule: Cn1cnc2c(NCCc3ccccc3Cl)ncnc21 [compound 0967, N^6-2(2-chlorophenylethyl)9-MA]
- pKi [5, 10]: < 5.00

Molecule: Cn1cnc2c(NC3CCCCC3)ncnc21 [N^6 -Cyclohexyl-9-MA]
- Kb [1, 6]: 7.4 µM
- Kb [2, 7]: 21 µM
- Kb [4, 9]: 0.65 µM

Molecule: C[C@@H](Cc1ccccc1)Nc1ncnc2c1ncn2C [compound 0986, N^6 -S-1-phenyl-2-propyl-9-MA]
- pKi [5]: < 5.00
- Kb [1]: 23 µM
- Kb [2, 7]: 74 µM
- pKi [3]: 5.00

Molecule: Cn1cnc2c(NCCc3ccsc3)ncnc21 [N^6-2-(3-Thienylethyl)-9-MA]
- Kb [1, 6]: 14 µM
- Kb [2, 7]: 25 µM
- pKi [3, 8]: 4.70
- Kb [4, 9]: 24 µM

Molecule: Cn1cnc2c(NC3CCC3)ncnc21 [N^6-cyclobutyl-0-MA, N^6 -Cyclobutyl-9-Methyl Adenine]
- Kb [1, 6]: 5.5 µM
- Kb [2, 7]: 23 µM
- pKi [3, 8]: 5.92
- Kb [4, 9]: 0.89 µM

Molecule: Cn1cnc2c(NCCc3c[nH]c4ccccc34)ncnc21 [compound 0989, N^6-2-(3-ethylindole)-9-MA]
- pKi [5, 10]: < 5.00

Molecule: Cn1cnc2c(NCCc3ccccc3)ncnc21 [compound 0990, N^6-2-(phenethyl)9-MA]
- pKi [5, 10]: < 5.00
- Kb [1, 6]: 170 µM
- Kb [2, 7]: 120 µM
- pKi [3, 8]: < 4.00
- Kb [4, 9]: > 300 µM

Molecule: OCCOCn1cnc2c(N[C@H]3C[C@H]4CC[C@@H]3C4)ncnc21 (relative stereo) [compound 1059, N^6-(endo-2-norbornyl)-9-[(2-hydroxyethoxy)methyl]adenine]
- pKi [5, 10]: 6.31

Molecule: C[C@H](Nc1ncnc2c1ncn2C)c1ccccc1 [compound 0985, N^6 -S-1-phenyl-1-ethyl-9-MA]
- pKi [5, 10]: < 4.00
